Results reported in the supplement of paper PMC10949913.

Tests used:
Experiment in all cases: area under concentration-response curve (viability) (AUC (a.u.)); higher = less active
Details in all cases: 48 h
CU-ACC2 = system: CU-ACC2
Outline: (§1)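 AC50 and area under the curve values derive from fitted concentration-response curves, restricted to inhibitory or non-responding curve classes. The curves came from three adrenocortical carcinoma cell lines in 1,536-well plates, each receiving 23 nL of every library compound at 11 concentrations. Viability was read by CellTiter-Glo luminescence after 48 h, normalised per plate to vehicle and empty-well controls.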

NCI-H295R = system: NCI-H295R
Outline: as §1

CU-ACC1 = system: CU-ACC1
Outline: as §1

## CNC(=O)[C@@H](NC(=O)[C@H](CC(C)C)[C@H](O)C(=O)NO)C(C)(C)C
CU-ACC2
  area under concentration-response curve: 615
NCI-H295R
  area under concentration-response curve: 563
CU-ACC1
  area under concentration-response curve: 513

## Cc1cnc(NC(=O)c2cc(Oc3cnc(C(=O)N(C)C)nc3)c3cc(C)oc3c2)cn1
CU-ACC2
  area under concentration-response curve: 643
NCI-H295R
  area under concentration-response curve: 594
CU-ACC1
  area under concentration-response curve: 564

## CCC(C)CNCC(=O)N1CCc2sccc2C1c1cccc(C)n1 (stereo unspecified)
CU-ACC2
  area under concentration-response curve: 622
NCI-H295R
  area under concentration-response curve: 571
CU-ACC1
  area under concentration-response curve: 531

## CC1Cc2ccccc2N1NC(=O)c1ccc(Cl)c([S+](N)(=O)[O-])c1 (stereo unspecified)
CU-ACC2
  area under concentration-response curve: 583
NCI-H295R
  area under concentration-response curve: 531
CU-ACC1
  area under concentration-response curve: 488

## N[C@@H](Cc1ccc(O)c(O)c1)C(=O)O
CU-ACC2
  area under concentration-response curve: 612
NCI-H295R
  area under concentration-response curve: 534
CU-ACC1
  area under concentration-response curve: 503

## CC(C)Oc1ccc(-c2nc(-c3cccc4c3CC[C@@H]4NCCO)no2)cc1C#N
CU-ACC2
  area under concentration-response curve: 502
NCI-H295R
  area under concentration-response curve: 481
CU-ACC1
  area under concentration-response curve: 370

## COC1=C(OC)C=C2CN(CCC3=CC=C(C=C3)[N]4N=NC(=N4)C5=CC(=C(OC)C=C5NC(=O)\C6=C\C(=O)C7=CC=CC=C7O6)OC)CCC2=C1
CU-ACC2
  area under concentration-response curve: 654
NCI-H295R
  area under concentration-response curve: 688
CU-ACC1
  area under concentration-response curve: 735

## Clc1ccc2ncc(-c3cccc(NC4CNC4)n3)n2c1
CU-ACC2
  area under concentration-response curve: 644
NCI-H295R
  area under concentration-response curve: 576
CU-ACC1
  area under concentration-response curve: 522

## OC1=CC2=C(C(=C1)O)C(=O)\C(=C(/O2)C3=CC(=C(O)C=C3)O)O
CU-ACC2
  area under concentration-response curve: 607
NCI-H295R
  area under concentration-response curve: 545
CU-ACC1
  area under concentration-response curve: 499

## CCCC[C@@H](C=O)NC(=O)[C@H](CC(C)C)NC(=O)OCc1ccccc1
CU-ACC2
  area under concentration-response curve: 552
NCI-H295R
  area under concentration-response curve: 517
CU-ACC1
  area under concentration-response curve: 463

## C[C@]1(C(=O)N(CCCC(=O)O)Cc2cccc(Cl)c2)CCN1C(=O)c1csc2ccccc12
CU-ACC2
  area under concentration-response curve: 584
NCI-H295R
  area under concentration-response curve: 532
CU-ACC1
  area under concentration-response curve: 490

## CC(C)(F)C[C@H](N[C@@H](c1ccc(-c2ccc([S+](C)(=O)[O-])cc2)cc1)C(F)(F)F)C(=O)NC1(C#N)CC1
CU-ACC2
  area under concentration-response curve: 587
NCI-H295R
  area under concentration-response curve: 527
CU-ACC1
  area under concentration-response curve: 481

## Cn1c(/C=C/CO)c(CO)c2c1C(=O)C=C(N1CC1)C2=O
CU-ACC2
  area under concentration-response curve: 580
NCI-H295R
  area under concentration-response curve: 514
CU-ACC1
  area under concentration-response curve: 461

## Cc1c(C)c2c(c(C)c1O)CCC(C)(COc1ccc(CC3SC(=O)NC3=O)cc1)O2 (stereo unspecified)
CU-ACC2
  area under concentration-response curve: 511
NCI-H295R
  area under concentration-response curve: 492
CU-ACC1
  area under concentration-response curve: 369

## CC1(C)CCC(=C(\C1)C2=CC=C(Cl)C=C2)/CN3CCN(CC3)C4=CC(=C(C=C4)C(=O)N[S+]([O-])(=O)C5=CC=C(NCC6CCOCC6)C(=C5)[N+]([O-])=O)OC7=CN=C8[NH]C=CC8=C7
CU-ACC2
  area under concentration-response curve: 573
NCI-H295R
  area under concentration-response curve: 478
CU-ACC1
  area under concentration-response curve: 511

## COc1ccc2c(C(=S)N(C)CC(=O)O)cccc2c1C(F)(F)F
CU-ACC2
  area under concentration-response curve: 535
NCI-H295R
  area under concentration-response curve: 481
CU-ACC1
  area under concentration-response curve: 490

## CNC[C@H](O)[C@@H](O)[C@H](O)[C@H](O)CO
CU-ACC2
  area under concentration-response curve: 542
NCI-H295R
  area under concentration-response curve: 547
CU-ACC1
  area under concentration-response curve: 421

## Cc1csc(NC(=O)c2sc3nc4c(c(C(F)(F)F)c3c2N)CCC4)n1
CU-ACC2
  area under concentration-response curve: 494
NCI-H295R
  area under concentration-response curve: 472
CU-ACC1
  area under concentration-response curve: 441

## CCN(CCCOc1ccc2c(Nc3cc(CC(=O)Nc4cccc(F)c4)[nH]n3)ncnc2c1)CCOP(=O)(O)O
CU-ACC2
  area under concentration-response curve: 579
NCI-H295R
  area under concentration-response curve: 495
CU-ACC1
  area under concentration-response curve: 471

## CC1SC/2=C(C(O)=O)/C(=O)C3=CC(=C(C=C3N12)N4CCN(CC4)C\C5=C(C)\OC(=O)O5)F (stereo unspecified)
CU-ACC2
  area under concentration-response curve: 612
NCI-H295R
  area under concentration-response curve: 565
CU-ACC1
  area under concentration-response curve: 586

## COc1ccc2cc(OCC3(C(=O)O)CN(C(=O)c4ccc(F)cc4)C3)ccc2c1
CU-ACC2
  area under concentration-response curve: 606
NCI-H295R
  area under concentration-response curve: 552
CU-ACC1
  area under concentration-response curve: 556

## COc1cc(Nc2ncc(F)c(Nc3ccc4c(n3)NC(=O)C(C)(C)O4)n2)cc(OC)c1OC
CU-ACC2
  area under concentration-response curve: 612
NCI-H295R
  area under concentration-response curve: 563
CU-ACC1
  area under concentration-response curve: 410

## C[C@]12CC[C@H]3[C@@H](CCC4=CC(=O)CC[C@@H]43)[C@@H]1CC[C@@H]2OC(=O)CCc1ccccc1
CU-ACC2
  area under concentration-response curve: 534
NCI-H295R
  area under concentration-response curve: 498
CU-ACC1
  area under concentration-response curve: 461

## COc1cc(N2CCC(O)CC2)ccc1Nc1cc(Nc2ccccc2[S+](=O)([O-])C(C)C)c2cc[nH]c2n1
CU-ACC2
  area under concentration-response curve: 654
NCI-H295R
  area under concentration-response curve: 588
CU-ACC1
  area under concentration-response curve: 585

## CCN1C[C@]2(OC(=O)c3ccccc3NC(C)=O)CC[C@H](OC)[C@@]34[C@@H]2C[C@@H]([C@@H]13)[C@@]1(O)C[C@H](OC)[C@H]2C[C@@H]4[C@]1(O)[C@H]2OC
CU-ACC2
  area under concentration-response curve: 499
NCI-H295R
  area under concentration-response curve: 429
CU-ACC1
  area under concentration-response curve: 416

## C[C@]\12CCC(=O)\C=C1CC[C@H]3[C@@H]4CC[C@](O)(C(=O)CO)[C@@]4(C)C[C@H](O)[C@H]23
CU-ACC2
  area under concentration-response curve: 549
NCI-H295R
  area under concentration-response curve: 512
CU-ACC1
  area under concentration-response curve: 458

## COC1=CC=C(Cl)C=C1\C2=C\C(=O)NC(=S)N2CC(N)=O
CU-ACC2
  area under concentration-response curve: 580
NCI-H295R
  area under concentration-response curve: 556
CU-ACC1
  area under concentration-response curve: 448

## COc1ccc(C(=O)N2CCN(C(=O)/C=C/c3ccc(Br)cc3)CC2)cc1
CU-ACC2
  area under concentration-response curve: 638
NCI-H295R
  area under concentration-response curve: 536
CU-ACC1
  area under concentration-response curve: 499

## N=C(N)NC(=O)c1nc(Cl)c(N)nc1N
CU-ACC2
  area under concentration-response curve: 658
NCI-H295R
  area under concentration-response curve: 615
CU-ACC1
  area under concentration-response curve: 455

## CC(C)NCC(O)c1ccc(O)c(O)c1 (stereo unspecified)
CU-ACC2
  area under concentration-response curve: 548
NCI-H295R
  area under concentration-response curve: 502
CU-ACC1
  area under concentration-response curve: 487

## O=C(N[C@H]1CN2CCC1CC2)c1ccc(Cl)cc1
CU-ACC2
  area under concentration-response curve: 616
NCI-H295R
  area under concentration-response curve: 554
CU-ACC1
  area under concentration-response curve: 495

## N#CC1(c2ccc(NC(=O)c3cccnc3NCc3ccncc3)cc2)CCCC1
CU-ACC2
  area under concentration-response curve: 531
NCI-H295R
  area under concentration-response curve: 545
CU-ACC1
  area under concentration-response curve: 547

## Cc1c(-c2ccc(-c3ccccc3F)cc2)nc2ccc(F)cc2c1C(=O)O
CU-ACC2
  area under concentration-response curve: 620
NCI-H295R
  area under concentration-response curve: 521
CU-ACC1
  area under concentration-response curve: 595

## Cc1c(NC(=O)c2cc(C(N)=O)nc3cc(F)ccc23)c(C(F)(F)F)nn1Cc1ccc(C(C)(C)C)cc1
CU-ACC2
  area under concentration-response curve: 589
NCI-H295R
  area under concentration-response curve: 533
CU-ACC1
  area under concentration-response curve: 506

## COc1nccc(-c2c(-c3ccc(F)cc3)ncn2C2CCNCC2)n1
CU-ACC2
  area under concentration-response curve: 482
NCI-H295R
  area under concentration-response curve: 423
CU-ACC1
  area under concentration-response curve: 429

## Cc1ccc(-c2ccc(C)cn2)nc1
CU-ACC2
  area under concentration-response curve: 342
NCI-H295R
  area under concentration-response curve: 384
CU-ACC1
  area under concentration-response curve: 405

## NCCCC(O)(P(=O)([O-])O)P(=O)(O)O
CU-ACC2
  area under concentration-response curve: 529
NCI-H295R
  area under concentration-response curve: 472
CU-ACC1
  area under concentration-response curve: 511

## CCOC(=O)C(C)(C)Oc1ccc(Cl)cc1
CU-ACC2
  area under concentration-response curve: 453
NCI-H295R
  area under concentration-response curve: 444
CU-ACC1
  area under concentration-response curve: 451

## CN(CCO)C1CCN(c2ccc(Nc3ncc4c5ccnc(F)c5n(C5CCCC5)c4n3)nc2)CC1
CU-ACC2
  area under concentration-response curve: 658
NCI-H295R
  area under concentration-response curve: 579
CU-ACC1
  area under concentration-response curve: 467

## NC1=NC=CC2=C1N=C[N]2[C@@H]3\C=C(CO)/[C@@H](O)[C@H]3O
CU-ACC2
  area under concentration-response curve: 454
NCI-H295R
  area under concentration-response curve: 403
CU-ACC1
  area under concentration-response curve: 448

## C[S+](=O)([O-])c1cc(F)cc2c3c(n(Cc4ccc(Cl)cc4)c12)[C@@H](CC(=O)O)CC3
CU-ACC2
  area under concentration-response curve: 613
NCI-H295R
  area under concentration-response curve: 544
CU-ACC1
  area under concentration-response curve: 536

## CCN(CC)CCCC(C)Nc1c2ccc(Cl)cc2nc2ccc(OC)cc12.Cl.Cl.O.O (stereo unspecified)
CU-ACC2
  area under concentration-response curve: 561
NCI-H295R
  area under concentration-response curve: 556
CU-ACC1
  area under concentration-response curve: 402

## COCCNc1cc(NC(=O)N2CCCc3cc(CN4CCN(C)CC4=O)c(C=O)nc32)ncc1C#N
CU-ACC2
  area under concentration-response curve: 550
NCI-H295R
  area under concentration-response curve: 564
CU-ACC1
  area under concentration-response curve: 552

## C=C1[C@H](OC(=O)/C=C(\C)CC)C[C@@H](C(C)C)[C@@H]2[C@H]([C@@H](C)OC(C)=O)C(=O)C[C@@H]12
CU-ACC2
  area under concentration-response curve: 617
NCI-H295R
  area under concentration-response curve: 557
CU-ACC1
  area under concentration-response curve: 527

## C[C@@H](CN1CC(=O)NC(=O)C1)N1CC(=O)NC(=O)C1
CU-ACC2
  area under concentration-response curve: 588
NCI-H295R
  area under concentration-response curve: 478
CU-ACC1
  area under concentration-response curve: 516

## CCC1(C)CC(=O)NC1=O (stereo unspecified)
CU-ACC2
  area under concentration-response curve: 603
NCI-H295R
  area under concentration-response curve: 551
CU-ACC1
  area under concentration-response curve: 497

## COc1cc2c(cc1-c1c(C)noc1C)ncc1[nH]c(=O)n([C@H](C)c3ccccn3)c12
CU-ACC2
  area under concentration-response curve: 515
NCI-H295R
  area under concentration-response curve: 459
CU-ACC1
  area under concentration-response curve: 490
